Data on four molecules can be found in patent US20250326733A1, “A NEW ROUTE FOR SY[…] CHIRAL CANNABINOIDS FROM COUMARINS” (University of Florida Research Foundation, Inc., priority 2021, published 2025).

“Also recorded” adds a separate entry of the source.

Test [1] has as its target T1, hCB1R (Homo sapiens, UniProt P21554). Nature of the test: Functional activity (agonism), TRUPATH assay of Gαiβ3γ9 protein activation. It is filed as cell-based. The conditions noted are these: for Emax: mean ± SEM, n >= 3, NA = no observable agonism at concentrations up to 31.6 μM.
In test [2] the target is T2, hCB2R (Homo sapiens, UniProt P34972). Described as above. It is filed as cell-based. The note with it: for Emax: mean ± SEM, n >= 3.
The target in test [3] is T1, hCB1R. Nature of the test: Binding affinity at human cannabinoid receptor 1.
Test [4] addresses T2, hCB2R. As to the kind of experiment: Binding affinity at human cannabinoid receptor 2. The conditions noted are these: for CB1/CB2: ratio of Ki hCB1R / hCB2R.
For test [5], the target named is T2, hCB2R. Nature of the test: Stimulation of [35S]GTPγS binding (native G protein activation). It is filed as biochemical. In general terms: GTPγS is a poorly hydrolysed GTP analogue; its binding reports G protein activation.

T1 sequence (P21554 whole entry): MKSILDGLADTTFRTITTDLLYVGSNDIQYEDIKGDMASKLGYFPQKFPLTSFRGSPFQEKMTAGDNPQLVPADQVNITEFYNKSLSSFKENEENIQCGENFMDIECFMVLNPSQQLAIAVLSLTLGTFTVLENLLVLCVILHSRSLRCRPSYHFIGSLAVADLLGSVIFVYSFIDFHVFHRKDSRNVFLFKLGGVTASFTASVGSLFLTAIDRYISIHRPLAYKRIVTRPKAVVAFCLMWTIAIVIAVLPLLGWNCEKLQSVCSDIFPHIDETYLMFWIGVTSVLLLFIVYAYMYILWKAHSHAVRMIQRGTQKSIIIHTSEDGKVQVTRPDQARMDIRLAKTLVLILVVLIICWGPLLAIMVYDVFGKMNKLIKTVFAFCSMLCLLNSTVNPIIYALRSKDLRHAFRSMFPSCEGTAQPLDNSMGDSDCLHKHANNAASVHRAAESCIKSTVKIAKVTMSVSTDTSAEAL
T2 sequence (P34972 whole entry): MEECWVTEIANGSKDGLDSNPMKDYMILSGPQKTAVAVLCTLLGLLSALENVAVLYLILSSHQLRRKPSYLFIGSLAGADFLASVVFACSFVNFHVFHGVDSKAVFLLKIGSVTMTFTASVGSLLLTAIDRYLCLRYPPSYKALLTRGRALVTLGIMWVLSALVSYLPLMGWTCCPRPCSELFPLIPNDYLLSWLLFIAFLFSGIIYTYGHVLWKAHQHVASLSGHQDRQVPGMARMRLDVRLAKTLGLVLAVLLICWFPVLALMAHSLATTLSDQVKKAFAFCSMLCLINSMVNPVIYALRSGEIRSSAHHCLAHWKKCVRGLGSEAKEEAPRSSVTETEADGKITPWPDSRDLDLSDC

For the molecule `C=C(C)[C@@H]1CCC(C)=C[C@H]1c1c(O)cc(CCCCC)cc1O` [CBD, cannabidiol, reference compound], the “agonism / efficacy (in words)” value at hCB1R [1] (hCB1R) and on hCB2R [2] (hCB2R) was “no efficacy” throughout.
What is called Ki is the equilibrium dissociation constant of an inhibitor or competing ligand from its target. A higher Ki goes with weaker binding. As for `CCCCCc1cc(O)c2c(c1)OC(C)(C)c1ccc(C)cc1-2` [CBN, cannabinol, reference compound], the Ki on hCB1R [3] (Ki (nM), hCB1R) was 240 nM; at hCB1R [3] (pKi, hCB1R, one site, FIG. 5), 631 nM; at hCB2R [4], 138 nM. Further, the CB1/CB2 at hCB2R [4] was determined as 1.7.
By EC50 is commonly meant the midpoint of the concentration-response curve. Low readings indicate a more potent agent, high ones a less potent agent. Take `CCCCCCC(C)(C)c1cc(O)c2c(c1)OC(C)(C)c1ccc(C)c(CO)c1-2` [axCBN-3]: the Ki at hCB1R [3] (Ki (nM), hCB1R) was 0.661 nM; on hCB1R [3] (pKiHi (high affinity site), hCB1R, two site binding model, FIG. 5), 0.398 nM; on hCB2R [4] it was 0.933 nM. Besides, the results for the “affinity, fold higher than CBN” value at hCB1R [3] (hCB1R) and on hCB2R [4] (hCB2R) were “approximately 360 fold” and roughly 134 fold, respectively. The “affinity (in words)” value on hCB1R [3] (hCB1R / CB1 receptor) and on hCB2R [4] (hCB2R / CB2 receptor) was “sub-nanomolar; also recorded: picomolar” each time. Further, the “affinity, fold higher than CBN-DMH reported by Rhee, et al.” value on hCB1R [3] (hCB1R and hCB2R, comparator value from literature) is 5-10 fold. Besides, the “pKiLo (low affinity site)” value at hCB1R [3] (hCB1R, two site binding model, FIG. 5) came out at 7.3. Besides, the CB1/CB2 on hCB2R [4] turned out to be 0.7. The EC50 on hCB1R [1] is 26.3 nM; on hCB2R [2], 3.47 nM. In addition, the Emax is reported as 0.0807 ± 0.0141 on hCB1R [1] (hCB1R) and 0.120 ± 0.0296 at hCB2R [2] (hCB2R). In addition, the “potency to stimulate [35S]GTPγS binding, hCB2R versus hCB1R” value at hCB2R [5] (greater at hCB2R than at hCB1R) was 2 fold. At hCB2R [5] (relative to CBN), the “efficacy in [35S]GTPγS binding (in words)” value was “increased efficacy over CBN”.
Take `CCCCCCC(C)(C)c1cc(OC(C)=O)c2c(c1)OC(C)(C)c1ccc(C)c(COC(C)=O)c1-2` [axCBN-4]: the inhibition constant Ki was 1200 nM on hCB1R [3] (Ki (nM), hCB1R) and 195 nM at hCB2R [4]. Moreover, at hCB2R [4], the “selectivity for hCB2R over hCB1R” value was determined as 6.2 fold. For the same molecule, the CB1/CB2 at hCB2R [4] is listed as 6.2. In addition, the figures for the EC50 on hCB1R [1] and at hCB2R [2] were 7080 nM and 178 nM, respectively. Also, the results for the Emax at hCB1R [1] (hCB1R) and on hCB2R [2] (hCB2R) were 0.175 ± 0.0832 and 0.120 ± 0.0294, respectively. Moreover, the “agonist activity (in words)” value at hCB2R [5] (hCB2R) is reported as “maintained agonist activity”.
